Assay results from US9757375B2, “Compounds that inhibit human DNA ligases and methods of treating cancer” (University of Maryland, Baltimore, priority 2007, dated 2017).
Like-named read-outs stand apart in the source and are kept apart here.

What was measured:
HeLa cell extract = test: Cell extract assay with 5′-flap substrate (DNA replication and long patch base excision repair); format: biochemical, human; conditions: for Cell Extract 100 (μM): BER inhibited: kind of BER not given; for final ligation step of the flap substrate repair reaction / flap removal by FEN-1: HeLa extract, 100 μmol/L (also 25 μM in the source), FIG. 4A
Protocol: Extracts were prepared from human cervical cancer HeLa cells as described previously (27, 31). For base excision repair (BER) assays, the extraction buffer contained 100 mmol/L of KCl, whereas for nonhomologous end-joining (NHEJ) assays, extraction buffer contained 400 mmol/L of KCl. Where indicated, DNA ligases were immunodepleted from the extracts as described (32) using protein A or G Sepharose beads (GE Healthcare) and anti-Lig1, anti-LigIII (GeneTex), or anti-LigIV (ABCAM) antibodies. Depletion was confirmed by immunoblotting.
A labeled 5′-flap substrate (0.1 pmol; (31)) was incubated with 20 μg of extract in the absence or presence of ligase inhibitors (100 μmol/L) at 25° C. for 5 min in ligation buffer (final volume, 50 μL). For short patch BER, a linear duplex containing a single uracil residue was preincised by treatment with uracil DNA glycosylase and APE1 (both from NEB) to generate a strand break with 3′ hydroxyl and 5′ deoxyribose phosphate termini. Reactions (50 μL) containing 0.3 pmol of the incised DNA substrate, 10 μCi of [α^32P]dTTP, and 20 μg of extract either in the absence or presence of ligase inhibitors (100 μmol/L) were incubated at 25° C. for 2 min in ligation buffer. After separation by denaturing polyacrylamide gel electrophoresis, labeled oligonucleotides were detected in the dried gel by phosphorImager analysis (Molecular Dynamics).
Next we used published cell extract assays (16,27,28) that measure different DNA replication and repair transactions to confirm the specificity of the DNA ligase inhibitors. FIG. 4A, the flap substrate (0.1 pmol) was incubated with cell extract (20 μg) in the absence (lane 2, Mock) or presence of 100 μmol/L, of L189 (lane 3), L67 (lane 4), or L82 (lane 5). hLigI (lane 6, I-dp) and hLigIIIa (lane 7, III-dp) were immunodepleted from the cell extracts prior to incubation with the DNA substrate. Lane 1, DNA substrate alone (Sub). The positions of the DNA substrate (24-mer), cleaved product (18-mer), and fully repaired product (43-mer). The flap substrate shown in FIG. 4A corresponds to an intermediate generated on the lagging strand during DNA replication and in the long patch subpathway of base excision repair. Previously it has been shown that DNA ligase I completes these two DNA transactions after removal of the flap by FEN-1 (16,28). A cell extract from the human cervical cancer cell line HeLa was incubated with the indicated labeled flap substrate that mimics a common intermediate in DNA replication and long patch base excision repair in the absence or presence of Compounds 67, 82, 184 and 189 (25 μM). After separation by denaturing gel electrophoresis, labeled fragments corresponding to the DNA substrate, cleaved product and fully repaired product were detected by phosphorimaging (28).

HCT116 cells = test: Cell proliferation screen (SYBR Green, Biomek FX); format: cell-based, human; conditions: for Growth_Inh % (50 μM) HCT116: percentage of values obtained with DMSO alone; for inhibition at 50 µM: Homo sapiens, HCT-116, read-out: % growth inhibition HCT116 50 uM
Protocol: (§1) The ability of the compounds identified by CADD to inhibit proliferation of normal mammary epithelial MCF10A cells and colon carcinoma HCT116 cells was determined using a Biomek FX Laboratory Automation Workstation (Beckman Coulter, Inc., Fullerton, Calif.). On day 0, 20 μl of complete medium containing the appropriate number of cells (150-300) was plated per well of a 384-well tissue plate (Fisher Scientific, Hampton, N.H.) and incubated overnight at 37° C. with 5% CO2 and 90% humidity. Next day, day 1, compounds were prepared by serial dilution with complete medium to yield the concentration 100 μM, and 20 μl was added to each well containing 20 μl of medium and cells yielding the final concentration 50 μM in 40 μl volume. Plates were incubated for additional 3 days (days-2-5) until control cells (0.5% DMSO) reached ˜70-80% confluency. On day 6, 40 μl of lysis/detection solution containing 1.2% Igepal CA-630 (Sigma) and a 1:1000 dilution of SYBR Green I nucleic acid stain (Molecular Probes, Eugene, Oreg.) was added to each well. Following an overnight incubation at 37° C., total fluorescence was measured using a Fluorostar Galaxy plate reader with a 485 nm excitation filter and 520 nm emission filter set (BMG Labtech, Inc., Durham, N.C.). Data was exported to a custom program that determined growth inhibition by dividing each individual fluorescence value by the average of fluorescence values obtained with cells treated with DMSO alone.
(§2) The 192 human DNA ligase inhibitors were screened in parallel for effects on proliferation and the ability to potentiate the effects of several DNA damaging agents using two cell human lines, a colon cancer line HCT116 and a normal breast epithelial cell line MCF10A using a Biomek FX Laboratory Automation Workstation as described (23). The DNA damaging agents used, methyl methanesulfonate (MMS), camptothecin, cis-platinum, 3 aminobenzamide and ionizing radiation, are representatives of classes of agents used to treat cancer. Briefly, HCT116 and MCF10A cells were plated in 96 well plates such that the cultures were about 80% confluent after 5 days incubation. Compounds were added to the cultures at either 15 μM or 50 μM 1 day after plating. After incubation for 3 days, cell lysed in a solution containing 1.2% Igepal CA-630 and SYBR green that stains DNA (1:1000, Molecular Probes, Eugene, Oreg.). Subsequently, fluorescence was measured per well. The studies with DNA damaging agents were performed as follows. […] For ionizing radiation, cells were pre-incubated with the compounds at 50 μM for 1 hour prior to exposure to 2 gray of ionizing radiation. Cultures were incubated for 3 days and then treated as above.

MCF10A cells = test: Cell proliferation screen (SYBR Green, Biomek FX); format: cell-based, human; conditions: for Growth_Inh % (50 μM) MCF10A: percentage of values obtained with DMSO alone; for inhibition at 50 µM: Homo sapiens, MCF-10A
Protocol: as §1, §2

HCT116 and MCF10A cells = test: Cell proliferation screen, result stated for one or both cell lines; format: cell-based, human; conditions: in vivo cell culture screen
Protocol: as §1, §2

[1] = test system: MCF7, HCT116, HeLa, and MCF10A cells; test: Survival assay on cell panel (FIG. 9); format: cell-based, human; conditions: for EC50 / cell survival: remark in words: cell line not stated
Excerpt: FIG. 9. […] A, effect of L67 (left) and L189 (right) on the survival of MCF7 (Δ), HCT116 (□), HeLa (⋄), and MCF10A (upsidedown triangle) cells. B, normal breast epithelial MCF10A cells (open symbols) and breast cancer MCF7 cells (filled symbols) in the absence (circles) or presence of 3 μmol/L of L67 (squares) were exposed to increasing concentrations of MMS (left). Normal breast epithelial MCF10A cells (open symbols) and colon cancer HCT116 cells (filled symbols) in the absence (circles) or presence of 20 μmol/L of L189 (squares) were exposed to increasing doses of ionizing radiation (right). C, hLigI (I), hLigIIIα (III), and hLigIV (IV) were detected in extracts (400 μg) of the indicated cell lines by immunoblotting. To control for extract loading β-actin was also detected by immunoblotting.
For survival assays, cells were plated in 6 well plates and grown either in the absence or presence of ligase inhibitors. Where indicated, either MMS (0-50 μM) was added to the medium or the cells were irradiated in a Cs-137 irradiator (0-2.5 Gy). After two weeks, colonies were stained with crystal violet (Sigma) and then counted.

[2] = 50 μM, read-out: In vivo growth inhb MCF10A % Inhb at 50
[3] = read-out: % growth inhibition MCF10A 50 uM

| Structure (SMILES) | In vitro growth inhb HCT116 % Inhb at 50 (μM) (HCT116 cells) | Growth_Inh % (50 μM) HCT116 (HCT116 cells) | inhibition at 50 µM (HCT116 cells) | Growth_Inh % (50 μM) MCF10A (MCF10A cells; 50 μM) | inhibition at 50 µM (MCF10A cells; [2]) | inhibition at 50 µM (MCF10A cells; [3]) | inhibition of cell proliferation, in words (HCT116 and MCF10A cells) | EC50 ([1]; Homo sapiens) | other results |
| --- | --- | --- | --- | --- | --- | --- | --- | --- | --- |
| O=c1[nH]ncc(N/N=C\c2ccc(O)c([N+](=O)[O-])c2)c1Cl [Compound 82] | 40% | 40% | 40% | 70% | 70% | 70% | inhibited cell proliferation | ~50 µM | Cell Extract 100 (μM): BER inhibited (HeLa cell extract): BER; final ligation step of the flap substrate repair reaction (HeLa cell extract): inhibited the final ligation step of the repair reaction; flap removal by FEN-1 (HeLa cell extract): had no effect on flap removal by FEN-1; cell survival: remark in words [1]: cytostatic, G1 |
| O=C(O)CSc1cc(Cl)c2nonc2c1[N+](=O)[O-] [Compound 64] | – | – | 70% | 40% | 40% | 40% | inhibited cell proliferation | ~50 µM | – |
| O=C(Cn1cnc([N+](=O)[O-])n1)N/N=C/c1ccc(O)cc1O [Compound 151] | 70% | – | 70% | – | 70% | 70% | inhibited cell proliferation | ~10 µM | Cell Extract 100 (μM): BER inhibited (HeLa cell extract): BER |
| Nc1nc(S)nc(O)c1/N=C/c1ccccc1 [Compound 189] | 70% | 70% | 70% | 70% | 70% | 70% | inhibited cell proliferation | ~50 µM | Cell Extract 100 (μM): BER inhibited (HeLa cell extract): BER; final ligation step of the flap substrate repair reaction (HeLa cell extract): inhibited the final ligation step of the repair reaction; flap removal by FEN-1 (HeLa cell extract): had no effect on flap removal by FEN-1; potentiation of the cytotoxic effects of DNA-damaging agents ([1]; L67 3 μmol/L with MMS (MCF7 vs MCF10A), L189 20 μmol/L with ionizing radiation (HCT116 vs MCF10A), FIG. 9B): potentiate the cytotoxic effects of DNA-damaging agents; cytotoxicity (cell survival) ([1]; MCF7, HCT116, HeLa, MCF10A, FIG. 9A): cytotoxic |
| Cc1oc(C(=O)O)cc1CSCc1cc(C(=O)O)c(C)o1 [Compound 197] | – | – | – | – | – | – | – | – | cell survival: remark in words [1]: no activity |
| C/C(O)=C1/C(=O)N(c2nc3ccccc3s2)N=C1c1ccccc1 [Compound 43] | 70% | – | 70% | – | 70% | 70% | inhibited cell proliferation | – | – |
| CS(=O)(=O)NNC(=O)C(=O)NNc1ccccc1 [Compound 184] | 40% | – | – | – | – | – | inhibited cell proliferation | – | % growth inhibition HCT116 50 uM (HCT116 cells; 50 uM): 40%; % growth inhibition MCF10A 50 uM (MCF10A cells; 50 uM): 70%; % growth inhibition of MCF10A cells in culture at 50 uM (MCF10A cells; 50 μM): 70%; EC50 [1]: ~10 µM |
| O=C(c1ccc(O)cc1)c1ccccc1O [Compound 200] | – | – | 70% | – | – | 70% | – | – | cell survival: remark in words [1]: metabolite active |
| O=C1Nc2ccccc2Oc2cc([N+](=O)[O-])cc([N+](=O)[O-])c21 [Compound 180] | – | 70% | – | 70% | – | – | – | – | – |
| CCCCC(=O)c1ccc(O)cc1O [Compound 213] | 70% | – | 70% | – | 70% | 70% | inhibited cell proliferation | – | – |
| COc1ccc(-c2cnc3c(O)nc(O)nc3n2)cc1 [Compound 190] | 40% | 40% | 40% | 70% | 40% | 40% | inhibited cell proliferation | – | – |
